Measurements as given in patent US7834049B2, “Integrin expression inhibitor” (Eisai R&D Management Co., Ltd., priority 2000, dated 2010).
≈ marks a conversion by molar mass, not a printed value.

Tests used:
integrin α5 [1] = assay: Integrin expression inhibitory action on human colonic cancer cell line HCT116-C9; type: cell-based
integrin α3 [2] = assay: Integrin expression inhibitory action on human normal fibroblast cell line WI38; type: cell-based; settings: WI38, higher concentration than in Examples 1 and 2 (0.5 μg/ml and 5 μg/ml), 48 hours
integrin α2 [3] = assay: Integrin expression inhibitory action on human colonic cancer cell line HCT116-C9; type: cell-based
integrin α3 [4] = assay: as above; type: cell-based
[5] = test system: Human umbilical venous endothelial cells (HUVEC); assay: Antiangiogenic effect-2: HUVEC tube formation between collagen layers; type: cell-based; settings: 96 h, HUVEC in type I collagen, 10 ng/ml EGF and 20 ng/ml bFGF, cultured 4 days, read-out: IC50, area of the formed tube
Method: 0.4 ml of type I collagen was added to a 24-well plate and solidified. Human umbilical venous endothelial cells (HUVEC) of 8×10^4 in number were seeded on the collagen and cultured overnight by using endothelial cells culture solution (Gibco BRL) containing 10 ng/ml EGF and 20 ng/ml bFGF. Next, the supernatant was removed and then 0.4 ml of the same collagen was overlaid. A culture solution containing 1.5 ml of the compound A was further added and the cells were cultured for 4 days. Thereafter, the area of the formed tube was measured quantitatively by image analysis.

integrin β4 = assay: Integrin expression inhibitory action on human colonic cancer cell line HCT116-C9; type: cell-based
integrin α4 = assay: Integrin expression inhibitory action on human normal fibroblast cell line WI38; type: cell-based; settings: WI38, higher concentration than in Examples 1 and 2 (0.5 μg/ml and 5 μg/ml), 48 hours
[6] = test system: human colic cancer cell strains (WiDr) chamber in C57 Black female mouse; assay: Antiangiogenic effect-3 (in vivo): mouse air capsule method with WiDr chamber; settings: dose of 50 mg/kg, orally administered, once a day; measured 4 days after chamber transplantation
Method: The above activity was evaluated using a method obtained by improving a mouse air capsule method (Sakamoto et al., Cancer Res., 1, 55-57, 1986) in part. Specifically, a millipore ring (Nippon Millipore) was sealed using a 0.22 μm membrane filter (HAWPO, Nippon Millipore) to form a chamber. 1×10^7 human colic cancer cell strains (WiDr) which were suspended in a phosphoric acid buffer solution were sealed into the chamber. Next, an air capsule was formed on a subcutaneous site of the backside of a C57 Black female mouse of 6 to 8 weeks age and the foregoing chamber was transplanted to the air capsule. The compound A was orally administered after about 6 hours passed after the transplantation was finished and afterwards administered in sequence once a day for 3 days. The erythrocytes of the mouse that was labeled with ^51Cr was injected from the tail vein 4 days after the chamber was transplanted. […] Then, a value obtained by subtracting the amount of blood measured in the case of the chamber including no cancer cell from the above amount of blood was determined as the amount of angiogenesis. […] If the results are evaluated by T/C (%): the amount of angiogenesis of the compound-administered groups/the amount of angiogenesis of the vehicle-administered groups×100, the compound A had such an effect as T/C=53% at a dose of 50 mg/kg.

integrin α2 [7] = assay: Integrin expression inhibitory action on human normal fibroblast cell line WI38; type: cell-based; settings: WI38, higher concentration than in Examples 1 and 2 (0.5 μg/ml and 5 μg/ml), 48 hours
Method: [Worded in the source for another cell line; this cell line is reported under the same test.] (§1) Human umbilical venous endothelial cells (HUVEC) of 5×10^5 in number were seeded in a 75 cm^2 cell culture bottle and then cultured using an EGM medium (Sanko Junyaku) at 37° C. in a CO2 incubator. Then, after 3 hours, the EGM medium was exchanged for the same medium including compound A, which was then cultured for further 48 hours. Next, the cells were collected and washed with a bovine serum albumin-containing phosphate buffer solution and the above buffer solution containing various anti-human integrin mouse antibodies was added to the cells and the solution containing cells was allowed to stand at 4° C. for 30 minutes. After washed, FITC connective anti-mouse IgG antibody was added to the cells, which was then allowed to stand for 30 minutes and washed again. Next, the cells were fixed and the amount of antibody connected per cell was measured as the amount of FITC by using a flow cytometer.
(§2) The integrin expression inhibitory action of the compound A on the above cells was examined in the same manner as in Example 1.

integrin α5 [8] = assay: as above; type: cell-based; settings: WI38, higher concentration than in Examples 1 and 2 (0.5 μg/ml and 5 μg/ml), 48 hours
Method: [Worded in the source for another cell line; this cell line is reported under the same test.] as §1, §2

integrin α6 [9] = assay: as above; type: cell-based; settings: WI38, higher concentration than in Examples 1 and 2 (0.5 μg/ml and 5 μg/ml), 48 hours
Method: [Worded in the source for another cell line; this cell line is reported under the same test.] as §1, §2

integrin β1 [10] = assay: as above; type: cell-based; settings: WI38, higher concentration than in Examples 1 and 2 (0.5 μg/ml and 5 μg/ml), 48 hours
Method: [Worded in the source for another cell line; this cell line is reported under the same test.] as §1, §2

integrin α6 [11] = assay: Integrin expression inhibitory action on human colonic cancer cell line HCT116-C9; type: cell-based
Method: [Worded in the source for another cell line; this cell line is reported under the same test.] as §1, §2

integrin α3 [12] = assay: Integrin expression inhibitory action on HUVEC (flow cytometer); type: cell-based, human; settings: 0.05 μg/ml, 48 hours
Method: as §1

integrin α2 [13] = assay: as above; type: cell-based, human; settings: 0.05 μg/ml, 48 hours
Method: as §1

integrin α5 [14] = assay: as above; type: cell-based, human; settings: 0.05 μg/ml, 48 hours
Method: as §1

integrin β3 = assay: as above; type: cell-based, human; settings: 0.05 μg/ml, 48 hours
Method: as §1

integrin α6 [15] = assay: as above; type: cell-based, human; settings: 0.05 μg/ml, 48 hours
Method: as §1

integrin αv = assay: as above; type: cell-based, human; settings: 0.05 μg/ml, 48 hours
Method: as §1

integrin β1 [16] = assay: as above; type: cell-based, human; settings: 0.05 μg/ml, 48 hours
Method: as §1

integrin β5 = assay: as above; type: cell-based, human; settings: 0.05 μg/ml, 48 hours
Method: as §1

integrin β1 [17] = assay: Integrin expression inhibitory action on human colonic cancer cell line HCT116-C9; type: cell-based
integrin α1 = assay: Integrin expression inhibitory action on human normal fibroblast cell line WI38; type: cell-based; settings: WI38, higher concentration than in Examples 1 and 2 (0.5 μg/ml and 5 μg/ml), 48 hours
[18] = HCT116-C9, 0.05 μg/ml, 48 hours

Cc1ccc(NS(=O)(=O)c2cccc(C#N)c2)c2[nH]cc(C#N)c12 [compound A, N-(3-Cyano-4-methyl-1H-indole-7-yl)-3-cyanobenzenesulfonamide]
expression of integrin α5 (integrin α5 [1]; [18]): inhibited | expression of integrin α5 (integrin α5 [1]; HCT116-C9, 0.5 μg/ml): inhibited | expression of integrin α3 (integrin α3 [2]): slightly inhibited | expression of integrin α2 (integrin α2 [3]; [18]): inhibited | expression of integrin α2 (integrin α2 [3]; HCT116-C9, 0.5 μg/ml): inhibited | expression of integrin α3 (integrin α3 [4]; [18]): inhibited | expression of integrin α3 (integrin α3 [4]; HCT116-C9, 0.5 μg/ml): inhibited | IC50 [5]: 0.12 µg/mL (≈ 0.357 µM) | expression of integrin β4 (integrin β4; [18]): inhibited | expression of integrin β4 (integrin β4; HCT116-C9, 0.5 μg/ml): inhibited | expression of integrin α4 (integrin α4): slightly inhibited | T/C (%): amount of angiogenesis of compound-administered groups / vehicle-administered groups ×100 [6]: 53% | expression of integrin α2 (integrin α2 [7]): slightly inhibited | expression of integrin α5 (integrin α5 [8]): no influence | expression of integrin α6 (integrin α6 [9]): no influence | expression of integrin β1 (integrin β1 [10]): no influence | expression of integrin α6 (integrin α6 [11]; [18]): inhibited | expression of integrin α6 (integrin α6 [11]; HCT116-C9, 0.5 μg/ml): inhibited | expression of integrin α3 on the surface of the cell (integrin α3 [12]): inhibited | expression of integrin α2 on the surface of the cell (integrin α2 [13]): inhibited | expression of integrin α5 on the surface of the cell (integrin α5 [14]): inhibited | expression of integrin β3 on the surface of the cell (integrin β3): inhibited | expression of integrin α6 on the surface of the cell (integrin α6 [15]): inhibited | expression of integrin αv on the surface of the cell (integrin αv): inhibited | expression of integrin β1 on the surface of the cell (integrin β1 [16]): inhibited | expression of integrin β5 on the surface of the cell (integrin β5): inhibited | expression of integrin β1 (integrin β1 [17]; [18]): inhibited | expression of integrin β1 (integrin β1 [17]; HCT116-C9, 0.5 μg/ml): inhibited | expression of integrin α1 (integrin α1): no influence
